Experimental data taken from patent publication US7479478B2, “Human parathyroid hormone modifications, preparation and use” (The General Hospital Corporation, priority 1998, dated 2009).
“Also recorded” adds a separate entry of the source. No end group written: not given here.

What was measured:
[1] = target: T1, human PTH-1 receptors (Homo sapiens, UniProt Q03431); test: Intracellular cAMP accumulation (adenylyl cyclase, AC, activation) in HKRK B7 cells; assay type: cell-based; details: HKRK B7 cells; for AC activation (cAMP accumulation), result in words: compared with hPTH-(1-34) or parent peptide
T1 construct: expressed in transfected cells
T1 sequence (Q03431 27-593): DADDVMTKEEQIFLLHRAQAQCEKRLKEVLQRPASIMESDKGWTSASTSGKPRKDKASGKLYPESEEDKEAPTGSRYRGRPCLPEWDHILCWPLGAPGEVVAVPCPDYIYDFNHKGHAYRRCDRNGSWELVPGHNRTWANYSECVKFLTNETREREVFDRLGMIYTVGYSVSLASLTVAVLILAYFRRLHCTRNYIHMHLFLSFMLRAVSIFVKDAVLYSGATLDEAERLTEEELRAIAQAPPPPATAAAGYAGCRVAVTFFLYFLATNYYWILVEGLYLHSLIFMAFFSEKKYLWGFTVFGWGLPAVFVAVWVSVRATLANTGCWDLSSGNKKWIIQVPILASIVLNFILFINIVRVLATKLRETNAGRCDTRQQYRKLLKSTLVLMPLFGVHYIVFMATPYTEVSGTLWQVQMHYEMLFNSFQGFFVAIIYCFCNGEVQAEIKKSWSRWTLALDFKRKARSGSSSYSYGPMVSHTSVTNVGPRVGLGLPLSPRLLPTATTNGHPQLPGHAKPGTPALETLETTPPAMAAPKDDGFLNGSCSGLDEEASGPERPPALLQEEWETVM
Method: HKRK B7 or EW5 cells (32), subclones of LLC-PKI renal epithelial cells that stably express human or rat PTH-1 receptors (950,000 and 320,000 receptors/cell, respectively), were maintained under 5% CO2 in air in Dulbecco's modified essential medium containing 7% fetal bovine serum (FBS) and 1% penicillin/streptomycin (GIBCO-BRL, Grand Island, N.Y.). HEK-293 and COS-7 cells were cultured similarly, except that 10% FBS was used in the medium. Cells were seeded into 24-well plates two days before assay at a density of 2-2.5×10^5 cells/well (HKRK B7 or EW 5 cells) or 6×10^5 cells/well (in 6-well plates) (HEK-293 cells). In experiments involving HEK-293 cells, DNA transfections were performed 24 hr after plating and inositol radiolabel was added 24 hr thereafter (see below). COS-7 cell transfections were performed as previously described (Gardella, T. J., et al., Endocrinology 132(5):2024-2030 (1993)) Intracellular cAMP accumulation, PLC activation and PTHR binding affinity were measured as previously reported (Bringhurst, F. R., et al., Endocrinology 132(5):2090-2098 (1993); Guo, J., et al., Endocrinology 136(9):3884-3891 (1995)). Intracellular cAMP accumulation was measured in extracts of cells that were exposed to human PTH peptides in the presence of isobutylmethyxanthine (IBMX, 1 mM) at 37° C. for 15 min. After terminating the reactions by aspiration and freezing in liquid nitrogen, cell monolayers were extracted with 50 mM HCl and cAMP was measured using a radioimmunoassay kit (Dupont-New England Nuclear, Boston, Mass.).

[2] = target: T1, human PTH-1 receptors; test: PLC activation (IP3 formation) in HKRK B7 cells; assay type: cell-based; details: HKRK B7 cells
Method: HKRK B7 or EW5 cells (32), subclones of LLC-PKI renal epithelial cells that stably express human or rat PTH-1 receptors (950,000 and 320,000 receptors/cell, respectively), were maintained under 5% CO2 in air in Dulbecco's modified essential medium containing 7% fetal bovine serum (FBS) and 1% penicillin/streptomycin (GIBCO-BRL, Grand Island, N.Y.). HEK-293 and COS-7 cells were cultured similarly, except that 10% FBS was used in the medium. Cells were seeded into 24-well plates two days before assay at a density of 2-2.5×10^5 cells/well (HKRK B7 or EW 5 cells) or 6×10^5 cells/well (in 6-well plates) (HEK-293 cells). In experiments involving HEK-293 cells, DNA transfections were performed 24 hr after plating and inositol radiolabel was added 24 hr thereafter (see below). COS-7 cell transfections were performed as previously described (Gardella, T. J., et al., Endocrinology 132(5):2024-2030 (1993))
PLC was activated by PTH agonists in the presence of 30 mM LiCl at 37° C. for 30 min after 16 hr of labeling with [^3H]myo-inositol (3 uCi/ml) in serum-free medium containing 0.1% bovine serum albumin. The reactions were stopped by rapid aspiration and addition of cold 5% TCA. Water-soluble radiolabeled inositol trisphosphate (IP3) was isolated after ether extraction by ion-exchange chromatography (Guo, J., et al., Endocrinology 136(9):3884-3891 (1995)). In experiments involving HEK 293 cells, cells previously transfected with human PTHR cDNA (in the pcDNA1 expression vector HKRK) using Lipofectamine (Gibco BRL) were labeled with [^3H]myo-inositol and assayed as described above, except that total water-soluble [^3H]inositol polyphosphates were collected as a single fraction from the ion-exchange columns.

fold reduction of PLC potency versus hPTH(1-34) [2] | EC50 [1] [µM] | fold less potent than hPTH-(1-29) in PLC activation [2] | EC50 ([2]; read-out: EC50 for PLC activity) [µM] | Substance | AC activation (cAMP accumulation), result in words [1] | PLC activation (IP3 formation), result in words ([2]; up to 1000 nM or 10 μM)
approximately 100 fold | – | – | – | GVSEIQLMHNLGKHLNSMRRVEWLRKKL [[Gly^1,Arg^19]hPTH-(1-28)] | indistinguishable from that of hPTH-(1-34) and equivalent to that by hPTH(1-34) and full | no increase in PLC activity; also recorded: strikingly and selectively impaired
– | 0.001 | approximately 5 fold | 6 | SVSEIQLMHNLGKHLNSMERVEWLRKKL-NH2 [hPTH-(1-28)] | as effectively as did hPTH-(1-34) | –
